Results as given in PMC5529018, “Discovery of novel brain permeable and G protein-biased beta-1 adrenergic receptor partial agonists for the treatment of neurocognitive disorders” (PLoS ONE, 2017).

Tests used:
5-HT 2A = 5-HT 2A (Homo sapiens, UniProt P28223); assay: Radioligand binding 5-HT 2A; settings: S2 Table; hot ligand [3H]Ketanserin; read-out: Binding Affinity Ki
[1] = tested on: LPS-induced TNFα production in primary microglia; assay: In vitro primary microglia TNFα assay; format: cell-based, Sprague Dawley rat; settings: Rattus norvegicus, 10 μM compound, LPS 10 ng/ml, 4 hrs, ELISA, read-out: inhibition of LPS-induced TNFα production
Excerpt: Mixed glial cells were obtained from the cerebral cortex of Sprague Dawley rat pups at postnatal days 1–3. Briefly, neonates were euthanized by decapitation and their brain tissues were collected for cortex isolation. The isolated cortex was then trypsinized, triturated, and placed into tissue culture flasks in DMEM supplemented with 10% fetal bovine serum and 1% Penicillin/Streptomycin. After 10 days in vitro, microglia were harvested by gentle shaking of the growth flask, plated in a 96 well plate at a density of 30,000 cells/well, and incubated at 37°C overnight.

5-HT 2C = 5-HT 2C (Homo sapiens, UniProt P28335); assay: Radioligand binding 5-HT 2C; settings: S2 Table; hot ligand [3H]Mesulergine; read-out: Binding Affinity Ki
ADR - Alpha 2A = ADR - Alpha 2A (Homo sapiens, UniProt P08913); assay: Radioligand binding ADR Alpha 2A; settings: S2 Table; hot ligand [3H] Rauwolscine; read-out: Binding Affinity Ki
5-HT 1D = 5-HT 1D (Homo sapiens, UniProt P28221); assay: Radioligand binding 5-HT 1D; settings: S2 Table; hot ligand [3H]GR125743; read-out: Binding Affinity Ki
5-HT1B = 5-HT1B (Homo sapiens, UniProt P28222); assay: Radioligand binding 5-HT1B; settings: S2 Table; hot ligand [3H]GR125743; read-out: Binding Affinity Ki
5-HT 2B = 5-HT 2B (Homo sapiens, UniProt P41595); assay: Radioligand binding 5-HT 2B; settings: S2 Table; hot ligand [3H]LSD; read-out: Binding Affinity Ki
Sigma 2 receptor = Sigma 2 receptor (Homo sapiens, UniProt Q5BJF2); assay: Radioligand binding Sigma 2 receptor; settings: S2 Table; hot ligand [3H]DTG; read-out: Binding Affinity Ki
Sequence of Sigma 2 receptor (Q5BJF2 whole entry, species assumed): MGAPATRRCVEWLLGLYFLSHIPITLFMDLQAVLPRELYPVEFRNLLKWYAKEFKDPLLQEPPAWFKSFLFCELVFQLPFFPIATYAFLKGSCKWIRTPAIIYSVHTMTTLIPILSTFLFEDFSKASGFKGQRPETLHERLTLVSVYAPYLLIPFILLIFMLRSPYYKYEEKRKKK

Sequence of 5-HT 2C (P28335 33-458, species assumed): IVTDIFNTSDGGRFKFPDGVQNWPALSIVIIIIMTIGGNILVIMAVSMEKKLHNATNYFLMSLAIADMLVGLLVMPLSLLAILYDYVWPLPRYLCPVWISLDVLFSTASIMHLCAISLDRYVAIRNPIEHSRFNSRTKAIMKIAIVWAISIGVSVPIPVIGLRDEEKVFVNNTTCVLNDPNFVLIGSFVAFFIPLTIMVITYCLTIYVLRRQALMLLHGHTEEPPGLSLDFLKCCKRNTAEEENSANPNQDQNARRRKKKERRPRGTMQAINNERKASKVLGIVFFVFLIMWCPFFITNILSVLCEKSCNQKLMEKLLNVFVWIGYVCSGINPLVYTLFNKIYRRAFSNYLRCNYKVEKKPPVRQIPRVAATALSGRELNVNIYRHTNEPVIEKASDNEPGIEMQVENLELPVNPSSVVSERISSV
Sequence of 5-HT 1D (P28221 whole entry, species assumed): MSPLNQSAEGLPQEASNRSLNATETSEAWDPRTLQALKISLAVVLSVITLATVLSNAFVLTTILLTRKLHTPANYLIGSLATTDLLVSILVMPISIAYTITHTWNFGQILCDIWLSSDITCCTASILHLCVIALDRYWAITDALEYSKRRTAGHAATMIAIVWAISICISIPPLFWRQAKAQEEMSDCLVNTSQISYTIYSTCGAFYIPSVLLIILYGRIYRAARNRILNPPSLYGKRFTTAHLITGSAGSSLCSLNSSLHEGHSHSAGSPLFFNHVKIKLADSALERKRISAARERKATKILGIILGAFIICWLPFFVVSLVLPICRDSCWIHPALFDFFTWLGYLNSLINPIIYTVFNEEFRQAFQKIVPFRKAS
Sequence of ADR - Alpha 2A (P08913 whole entry): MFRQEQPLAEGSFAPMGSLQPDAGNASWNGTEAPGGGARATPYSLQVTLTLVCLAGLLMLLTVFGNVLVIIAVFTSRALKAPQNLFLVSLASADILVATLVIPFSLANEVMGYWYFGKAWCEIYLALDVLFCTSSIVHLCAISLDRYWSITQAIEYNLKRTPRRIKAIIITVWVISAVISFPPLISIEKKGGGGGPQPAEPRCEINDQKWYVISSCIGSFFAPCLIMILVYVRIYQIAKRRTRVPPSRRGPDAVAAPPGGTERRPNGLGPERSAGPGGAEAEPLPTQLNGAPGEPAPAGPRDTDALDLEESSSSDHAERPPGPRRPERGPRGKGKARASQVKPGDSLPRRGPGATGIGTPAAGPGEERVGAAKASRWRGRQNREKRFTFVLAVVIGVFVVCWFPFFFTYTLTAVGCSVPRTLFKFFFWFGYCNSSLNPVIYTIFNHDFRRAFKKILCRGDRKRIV
Sequence of 5-HT1B (P28222 whole entry, species assumed): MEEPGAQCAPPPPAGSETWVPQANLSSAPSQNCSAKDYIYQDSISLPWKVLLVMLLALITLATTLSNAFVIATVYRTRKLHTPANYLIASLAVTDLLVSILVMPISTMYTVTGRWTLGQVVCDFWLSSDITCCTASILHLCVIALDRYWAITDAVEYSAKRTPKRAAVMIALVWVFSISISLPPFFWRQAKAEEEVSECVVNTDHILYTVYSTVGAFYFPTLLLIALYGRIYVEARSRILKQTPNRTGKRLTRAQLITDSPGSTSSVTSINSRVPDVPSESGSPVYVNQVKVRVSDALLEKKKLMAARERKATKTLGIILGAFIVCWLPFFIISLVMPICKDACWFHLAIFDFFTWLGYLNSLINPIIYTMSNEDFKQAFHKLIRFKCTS
Sequence of 5-HT 2B (P41595 whole entry, species assumed): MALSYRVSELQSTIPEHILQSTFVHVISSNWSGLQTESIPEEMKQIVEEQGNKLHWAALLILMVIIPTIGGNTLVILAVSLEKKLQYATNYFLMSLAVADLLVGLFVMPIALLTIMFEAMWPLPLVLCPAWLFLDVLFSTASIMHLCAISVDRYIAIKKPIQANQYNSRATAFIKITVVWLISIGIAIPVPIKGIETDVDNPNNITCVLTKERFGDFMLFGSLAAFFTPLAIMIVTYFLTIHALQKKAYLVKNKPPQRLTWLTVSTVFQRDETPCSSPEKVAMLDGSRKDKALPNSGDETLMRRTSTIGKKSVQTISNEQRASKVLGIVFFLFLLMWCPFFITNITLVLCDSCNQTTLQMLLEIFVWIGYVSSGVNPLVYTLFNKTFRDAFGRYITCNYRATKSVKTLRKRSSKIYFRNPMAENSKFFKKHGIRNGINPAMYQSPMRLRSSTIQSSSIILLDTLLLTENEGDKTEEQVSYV
Sequence of 5-HT 2A (P28223 whole entry, species assumed): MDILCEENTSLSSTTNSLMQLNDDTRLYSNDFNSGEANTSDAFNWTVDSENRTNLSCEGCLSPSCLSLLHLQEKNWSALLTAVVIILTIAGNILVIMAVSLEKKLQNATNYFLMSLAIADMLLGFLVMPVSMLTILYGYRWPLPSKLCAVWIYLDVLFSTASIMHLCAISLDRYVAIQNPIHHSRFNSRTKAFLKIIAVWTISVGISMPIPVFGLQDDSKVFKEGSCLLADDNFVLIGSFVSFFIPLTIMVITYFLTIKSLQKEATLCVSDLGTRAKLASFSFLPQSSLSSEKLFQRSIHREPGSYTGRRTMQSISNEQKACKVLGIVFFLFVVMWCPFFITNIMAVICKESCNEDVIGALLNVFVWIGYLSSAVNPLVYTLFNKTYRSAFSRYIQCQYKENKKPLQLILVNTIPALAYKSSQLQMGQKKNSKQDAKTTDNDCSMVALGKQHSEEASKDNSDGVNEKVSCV

COc1ccccc1OCCNC[C@H](O)COc1ccc(O)cc1.COc1ccccc1OCCNC[C@H](O)COc1ccc(O)cc1.O=C(O)/C=C/C(=O)O [STD-101-D1, (S)-4-(2-hydroxy-3-((2-(2-methoxyphenoxy)ethyl)amino)propoxy)phenol hemifumarate]
Ki (5-HT 2A): 1240 nM | inhibition at 10 µM [1]: ~50% | Ki (5-HT 2C): 1150 nM | Ki (ADR - Alpha 2A): 1170 nM | Ki (5-HT 1D): 149 nM | Ki (5-HT1B): 382 nM | Ki (5-HT 2B): 25 nM | Ki (Sigma 2 receptor): 236 nM
